From US10301317B2, “Inhibitors of ERK and methods of use” (Kura Oncology, Inc., priority 2013, dated 2019) come the findings set out here.

One assay deals with phospho-p90 RSK (RSK1 Thr359/Ser363) in A375 (Braf V600E) cells. Briefly: Phospho-p90 RSK ELISA using A375 (Braf V600E) cells. Format: cell-based. Conditions: Homo sapiens, A-375, 2 hours compound treatment, read-out: Cellular Phospho-p90RSK IC50. (An ELISA detects its analyte on a solid surface through an enzyme-linked reagent.)
Regarding `Cc1cc(-c2n[nH]c3cc4c(cc23)CN([C@@H]2CN(CC(F)(F)F)C[C@H]2c2cccs2)C(=O)N4)ccn1` (mixture of isomers) [Example 321], the IC50 is at most 0.25 µM.
For the compound `Cc1cc(-c2n[nH]c3cc4c(cc23)CN([C@@H]2CN(CC(F)F)C[C@H]2c2ccccc2)C(=O)N4)ccn1` (mixture of isomers) [Example 362], the IC50 was at most 0.25 µM.
Regarding `Cc1cc(-c2n[nH]c3cc4c(cc23)CN([C@@H]2CN(CC#N)C[C@H]2c2ccccc2)C(=O)N4)ccn1` (mixture of isomers) [Example 366], the IC50 was at most 0.25 µM.
Turning to `Cc1cc(-c2n[nH]c3cc4c(cc23)CN([C@@H]2CN(C)C[C@H]2c2ccccc2)C(=O)N4)ccn1` (racemic) [Example 241], the IC50 was at most 0.25 µM.
`Cc1cc(-c2n[nH]c3cc4c(cc23)CN([C@@H]2CN(C)C[C@H]2c2ccccc2)C(=O)N4)cc(C)n1` (racemic) [Example 248]: the IC50 is at most 0.25 µM.
Same read-out and setting: with `CCN1C[C@@H](N2Cc3cc4c(-c5ccnc(C)c5)n[nH]c4cc3NC2=O)[C@H](c2ccccc2)C1` (racemic) [Example 278] the figure was at most 0.25 µM; with `COc1ncc(-c2n[nH]c3cc4c(cc23)CN([C@@H]2CCCN(Cc3cccs3)C2)C(=O)N4)cn1` [Example 295], at most 0.25 µM.
Still for that read-out and setting: the same measure for `Cc1cc(-c2n[nH]c3cc4c(cc23)CN([C@H]2CN(C(C)C)C[C@@H]2c2ccccc2)C(=O)N4)ccn1` [Example 296]: over 1 µM; for `Cn1cc(-c2n[nH]c3cc4c(cc23)CN([C@@H]2CCCN(Cc3cccs3)C2)C(=O)N4)cn1` [Example 298]: at most 0.25 µM.
For `Cc1cc(-c2n[nH]c3cc4c(cc23)CN([C@H]2CCN(CC(F)(F)F)C2)C(=O)N4)ccn1` [Example 299], the IC50 was at most 0.25 µM.
Still for that read-out and setting: with `Cc1cc(-c2n[nH]c3cc4c(cc23)CN([C@H]2CN(CC(F)(F)F)C[C@@H]2c2ccccc2)C(=O)N4)ccn1` [Example 303] the figure was over 1 µM; with `Cc1cc(-c2n[nH]c3cc4c(cc23)CN([C@H]2CN(C)C[C@@H]2c2ccccc2)C(=O)N4)cc(C)n1` [Example 307], 0.25 to 1 µM; with `Cc1cc(-c2n[nH]c3cc4c(cc23)CN([C@H]2CCCN(CC(F)(F)F)C2)C(=O)N4)ccn1` [Example 309], 0.25 to 1 µM.
In the case of `Cc1cc(-c2n[nH]c3cc4c(cc23)CN([C@H]2CCN(CC(F)(F)F)C2)C(=O)N4)cc(C)n1` [Example 310], the IC50 fell in the range of 0.25 to 1 µM.
Still for that read-out and setting: the same measure for `Cc1cc(-c2n[nH]c3cc4[nH]c(=O)c(C(C)c5ccc(F)cc5F)cc4cc23)ccn1` (stereo not shown) [Example 312]: at most 0.25 µM.
On the same count and under the same terms, with `Cc1cc(-c2n[nH]c3cc4c(cc23)CN([C@@H]2CCC[C@@H](NCc3ccccc3)C2)C(=O)N4)ccn1` [Example 313] the figure was 0.25 to 1 µM.
As for `Cc1cc(-c2n[nH]c3cc4c(cc23)CN([C@@H]2CN(CC(F)(F)F)C[C@H]2C(C)(C)C)C(=O)N4)ccn1` [Example 329], the IC50 is over 1 µM.
`CC(c1ccccc1)c1cc2cc3c(-c4cnc(N)nc4)n[nH]c3cc2[nH]c1=O` (stereo not shown) [Example 334]: the IC50 is at most 0.25 µM.
As to `Cc1ncccc1-c1n[nH]c2cc3[nH]c(=O)c(C(C)c4ccccc4)cc3cc12` (stereo not shown) [Example 335], the IC50 was over 1 µM.
Same read-out and setting: with `Cc1cc(-c2n[nH]c3cc4[nH]c(=O)c(C5CCCN(Cc6cc(F)ccc6F)C5)cc4cc23)ccn1` (stereo not shown) [Example 336] the figure was at most 0.25 µM.
Consider `O=C1Nc2cc3[nH]nc(-c4ccnnc4)c3cc2CN1[C@@H]1CN(CC(F)(F)F)C[C@H]1c1ccccc1` [Example 340], for which the IC50 was at most 0.25 µM.
Same read-out and setting: the same measure for `O=C1Nc2cc3[nH]nc(-c4cccnc4)c3cc2CN1[C@@H]1CN(CC(F)(F)F)C[C@H]1c1ccccc1` [Example 341]: at most 0.25 µM; for `O=C1Nc2cc3[nH]nc(-c4ccncc4)c3cc2CN1[C@@H]1CN(CC(F)(F)F)C[C@H]1c1ccccc1` [Example 342]: at most 0.25 µM; for `Cc1cnccc1-c1n[nH]c2cc3[nH]c(=O)c(C(C)c4ccccc4)cc3cc12` (stereo not shown) [Example 343]: over 1 µM.
Same read-out and setting: with `CC(c1ccccc1)c1cc2cc3c(-c4ccnc(N)c4)n[nH]c3cc2[nH]c1=O` (stereo not shown) [Example 344] the figure was at most 0.25 µM.
As to `CC(c1ccccc1)c1cc2cc3c(N4CCOCC4)n[nH]c3cc2[nH]c1=O` (stereo not shown) [Example 345], the IC50 was at most 0.25 µM.
For the compound `Cn1cc(-c2n[nH]c3cc4c(cc23)CN([C@@H]2CN(CC(F)(F)F)C[C@H]2c2ccccc2)C(=O)N4)ccc1=O` [Example 346], the IC50 was at most 0.25 µM.
Same read-out and setting: with `CC(c1ccccc1)c1cc2cc3c(-c4ccc(=O)n(C)c4)n[nH]c3cc2[nH]c1=O` (stereo not shown) [Example 347] the figure was at most 0.25 µM; with `COc1ncc(-c2n[nH]c3cc4c(cc23)CN([C@@H]2CN(CC(F)(F)F)C[C@H]2c2ccccc2)C(=O)N4)cn1` [Example 348], at most 0.25 µM.
As for `Cc1ncc(-c2n[nH]c3cc4c(cc23)CN([C@@H]2CN(CC(F)(F)F)C[C@H]2c2ccccc2)C(=O)N4)cn1` [Example 349], the IC50 is at most 0.25 µM.
`Cn1nccc1-c1n[nH]c2cc3c(cc12)CN([C@@H]1CN(CC(F)(F)F)C[C@H]1c1ccccc1)C(=O)N3` [Example 350]: the IC50 is over 1 µM.
For `Nc1ncc(-c2n[nH]c3cc4c(cc23)CN([C@@H]2CN(CC(F)(F)F)C[C@H]2c2ccccc2)C(=O)N4)cn1` [Example 351], the IC50 was 0.25 to 1 µM.
With `Cn1cc(-c2n[nH]c3cc4c(cc23)CN([C@@H]2CN(CC(F)(F)F)C[C@H]2c2ccccc2)C(=O)N4)cn1` [Example 352], the IC50 is at most 0.25 µM.
Regarding `CC(c1ccccc1)c1cc2cc3c(N4CCN(C)CC4)n[nH]c3cc2[nH]c1=O` (stereo not shown) [Example 358], the IC50 was over 1 µM.
Still for that read-out and setting: with `Cc1cc(-c2n[nH]c3cc4[nH]c(=O)c(C5CCCN(Cc6ccccc6)C5)cc4cc23)cc(C)n1` (stereo not shown) [Example 360] the figure was 0.25 to 1 µM.
As for `Cc1cc(-c2n[nH]c3cc4c(cc23)CN([C@H]2CCCN(Cc3ccccc3)C2)C(=O)N4)cc(C)n1` [Example 363], the IC50 is over 1 µM.
On to `COc1ncc(-c2n[nH]c3cc4c(cc23)CN([C@H]2CCCN(Cc3ccccc3)C2)C(=O)N4)cn1` [Example 365], for which the IC50 is over 1 µM.
With `COc1cc(-c2n[nH]c3cc4[nH]c(=O)c(C5CCCN(Cc6ccccc6)C5)cc4cc23)ccn1` (stereo not shown) [Example 370], the IC50 is at most 0.25 µM.
On the same count and under the same terms, the same measure for `Cc1cc(-c2n[nH]c3cc4c(cc23)CN(Cc2ccccc2)C(=O)N4)ccn1` [Example 372]: at most 0.25 µM; for `Cc1ccc(-c2n[nH]c3cc4[nH]c(=O)c(C5CCCN(Cc6ccccc6)C5)cc4cc23)cn1` (stereo not shown) [Example 373]: 0.25 to 1 µM; for `Cc1cc(-c2n[nH]c3cc4c(cc23)CN([C@H]2CN(CC(F)F)C[C@@H]2c2ccccc2)C(=O)N4)ccn1` [Example 383]: over 1 µM.
As to `Cc1cc(-c2n[nH]c3cc4c(cc23)CN([C@H]2CN(CC(F)F)C[C@@H]2c2ccccc2)C(=O)N4)cc(C)n1` [Example 385], the IC50 is over 1 µM.
On to `Cc1cc(-c2n[nH]c3cc4c(cc23)CN([C@@H]2CN(CC(F)F)C[C@H]2c2ccccc2)C(=O)N4)cc(C)n1` [Example 386], for which the IC50 is at most 0.25 µM.

The next assay has as its system A375 cells. The assay is described as follows: Tumor cell line proliferation assay (CellTiter Glo), A375. Conditions: Homo sapiens, A-375, 96 h, read-out: A375 (V599E) Cell Proliferation IC50. The class given is cell-based. Background: Cellular ATP, detected with luciferase, serves as a proxy for viable cell number.
Take `Cc1cc(-c2n[nH]c3cc4c(cc23)CN([C@@H]2CN(CC(F)(F)F)C[C@H]2c2cccs2)C(=O)N4)ccn1` (mixture of isomers) [Example 321]: the IC50 lay within 0.25 to 1 µM.
On to `Cc1cc(-c2n[nH]c3cc4c(cc23)CN([C@@H]2CN(CC(F)F)C[C@H]2c2ccccc2)C(=O)N4)ccn1` (mixture of isomers) [Example 362], for which the IC50 is at most 0.25 µM.
The same measure, in the same setting: the same measure for `Cc1cc(-c2n[nH]c3cc4c(cc23)CN([C@@H]2CN(CC#N)C[C@H]2c2ccccc2)C(=O)N4)ccn1` (mixture of isomers) [Example 366]: over 1 µM.
Regarding `Cc1cc(-c2n[nH]c3cc4c(cc23)CN([C@@H]2CN(C)C[C@H]2c2ccccc2)C(=O)N4)ccn1` (racemic) [Example 241], the IC50 is at most 0.25 µM.
Same read-out and setting: the same measure for `Cc1cc(-c2n[nH]c3cc4c(cc23)CN([C@@H]2CN(C)C[C@H]2c2ccccc2)C(=O)N4)cc(C)n1` (racemic) [Example 248]: at most 0.25 µM; for `CCN1C[C@@H](N2Cc3cc4c(-c5ccnc(C)c5)n[nH]c4cc3NC2=O)[C@H](c2ccccc2)C1` (racemic) [Example 278]: at most 0.25 µM.
